Four molecules from patent publication US20140315717A1 (priority 2006, published 2014) can be followed below.

The test system of test [1] is Root Knot Nematode (RKN; Meloidogyne incognita). Nature of the test: Control of cotton root knot nematode in cotton plants (ST474). The class given is in vivo. To be noted: RKN + DCSA. Here is the method: DCSA was unexpectedly found to control gall formation, improve plant height and reduce number of eggs produced by the nematode in cotton plants (ST474) (Table 5). Ten to fourteen days old cotton plants were treated with DCSA at the rate of […], 24 hrs before inoculating them with RKN eggs. […] Plant height, gall rating, and egg counts were measured 45 days after inoculation. The gall rating scale was 0-5 with 0=no visible galling and 5=heavy galling.

The test system of test [2] is cotton plants. Nature of the test: Paraquat (Gramoxone) oxidative stress injury in cotton, visual % injury. The class given is in vivo. Particulars: for Percentage injury: 2 DAT, DCSA where applied 1 lb/acre 24 hours before. Here is the method:
Four different cotton cultivars as indicated in Table 3 were grown in 4-inch pots for two weeks. These cotton plants were either sprayed with DCSA (BASF) at the 1 lb/A rate, or unsprayed (no DCSA application, as control). Experimental plants (treated with DCSA and untreated) were sprayed with Paraquat (Gramoxone®; Syngenta) at 30 gm/ha, 70 gm/ha, and 100 gm/ha rates, 24 hours after the application of DCSA, to simulate oxidative stress. […] The same experiment was repeated at two different growth stages of cotton (2 nodes stage and 5 nodes stage).

Test [3] has as its system PR-2, i.e., β-1,3-glucanase. Nature of the test: Induction of PR-2 mRNA (northern blot) in DMO soybean after spraying. In kind it is in vivo. Particulars: for induction of PR2 at various rates: 0.25, 0.5 and 1 lb/acre, 24 hrs after treatment, two independent transgenic soybean lines, FIG. 2. From the text: (§1) Transgenic and control soybean seeds (cultivars Thorne, NE3001, A3525) were planted into 3.5-inch square plastic pots containing Redi-Earth™ (Scotts-Sierra Horticultural Products Co., Marysville, Ohio). The pots were placed on capillary matting in 35 inch×60 inch fiberglass watering trays for overhead and/or sub-irrigation for the duration of the test period so as to maintain optimum soil moisture for plant growth and were fertilized with Osmocote® (14-14-14 slow release; Scotts-Sierra Horticultural Products Co., Marysville, Ohio) at the rate of 100 gm/cu. ft. to sustain plant growth for the duration of greenhouse trials.
(§2) A 14 hour minimum photoperiod was provided with supplemental light at about 600 μE (micro-Einsteins) as needed. Trials were established in a randomized block design randomized by rate with 4 to 6 replications of each treatment.
(§3) All herbicide applications were made with the track sprayer using a Teejet® 9501E flat fan nozzle (Spraying Systems Co, Wheaton, Ill.) with air pressure set at a minimum of 24 psi (pounds per square inch), or 165 kpa (kilopascals)). The spray nozzle was kept at a height of about 16 inches above the top of plant material for spraying. The spray volume was 10 gallons per acre or 93 liters per hectare. Applications were made when plants had reached V-3 stage.
Leaf samples were harvested after 0, 3, 8, 24, 48, 72 hrs after treatment (HAT) and frozen for further analysis. […] RNA was extracted and analyzed by northern blot analysis using PR-2, i.e., β-1,3-glucanase as a probe.

Test [4] has as its system Xanthomonas campestris pv. malvacearum. Nature of the test: Bacterial blight tooth pick inoculation of sprayed cotton plants. Particulars: two-week old cotton, DCSA sprayed about 24 hours before inoculation, FIG. 4. In kind it is in vivo. Here is the method: In this example, two-week old cotton plants were sprayed with DCSA while control plants received spray application of water only. The plants were inoculated with bacterial blight pathogen (Xanthomonas campestris pv. malvacearum) about 24 hours after the DCSA spray application using a tooth pick inoculation method. As shown in the FIG. 4, the cotton plants inoculated with the bacterial pathogen but not sprayed with DCSA developed necrotic spots, typical symptoms of bacterial blight. […] The results of this experiment indicate that DCSA application reduced bacterial infection on cotton plants when inoculated with bacterial pathogen 24 hours after the DCSA spray.

The subject of test [5] is soybean plants. The class given is in vivo.
Excerpt: as §1, §2, §3
For this example, the plants were grown as described in the above example. Transgenic and non transgenic soybean plants carrying the DMO gene in their genome were either treated with Paraquat (Gramoxone®; Syngenta) to create oxidative stress or with dicamba followed by Paraquat at V3 stage. The dicamba rate was 1 lb/acre or 1120 g ae/ha. Paraquat was applied at 30, 70, or 200 g ae/ha. Plants were then evaluated for paraquat injury by visually assessing injury at a particular day after treatment (DAT) for injury on a scale of 0 to 100 percent relative to untreated control plants, with zero representing “no” injury and 100% representing “complete” injury or death. Data were collected and analyzed using suitable statistical methods.
In another experiment, the effect of externally applied DCSA was tested for its benefit in protecting soybean plants from oxidative stress injury caused by Paraquat. Different amounts of DCSA were applied 24 hrs before applying Paraquat to test any correlation between the amount of DCSA applied and the extent of protection obtained from oxidative stress measured in terms of reduction in % injury as described above. Different levels of dicamba were also applied separately to test the same hypothesis.

For test [6], the system named is Verticillium dahliae. Nature of the test: Protection of cotton against Verticillium wilt, seedling dipping inoculation. In kind it is in vivo. Particulars: for Plant survival rating (out of 10) / Severity rating (1-9): cotton ST6611, DCSA 1 lb/A, glyphosate 0.75 lb/A 24 hours before inoculation; for Severity rating (1-9): 1 healthy, 9 dead. From the text: DCSA was unexpectedly found to provide protection to cotton plants against Verticillium dahliae, causal agent of cotton wilt disease (Table 6). Cotton plants of the variety ST6611, BOLLGARD 2, ROUNDUP READY FLEX, were inoculated with a moderate isolate (DPL) or a virulent isolate (King) of Verticillium by a seedling dipping method. Seedlings at the first true leaf stage were taken out from the pots, one inch of roots were cut off, seedlings were dipped in a spore slurry for one minute, and then transplanted back in the pots. These strains were isolated and provided by Dr. Terry Wheeler (Texas A&M University, TX USA). DCSA was applied at the rate of 1 lb/A and glyphosate (ROUNDUP WEATHERMAX, Monsanto) at the rate of 0.75 lb/A 24 hours before inoculation. Protection against Verticillium was measured on a disease severity scale of 1-9: 1 being healthy and 9 being dead because of disease, and also was measured as the number of plants that survived out of 10 inoculated plants.

Test [7] has as its system Pythium ultimum. Briefly: Pythium ultimum inoculation of sprayed cotton seedlings. In kind it is in vivo. Particulars: cotton plants contacted with 3,6-DCSA; untreated plants are killed. As for the experimental part:
Ten-day old Roundup Ready® Flex Cotton (Event MON 88913; U.S. Publ. 20060059590) seedlings were sprayed with a mixture of Roundup Weather Max® (Monsanto, St. Louis, Mo.) and 3,6-DCSA (BASF). The control plants were sprayed with water only. The cotton seedlings from both treatments were inoculated with Pythium ultimum by dipping seedling into inoculum slurry, 24 hours after the spray application. The positive control plants were neither sprayed nor inoculated with P. P. ultimum. […] Cotton plants treated with Roundup® and DCSA were as healthy as were the plants not inoculated with P. ultimum.

Test [8] concerns soybean. Particulars: DMO transgenic soybean, dicamba 1.5 lb ae/acre Pre and/or Post (V3-4), in 4/5 events and 13/15 treatments, FIG. 6. Here is the method: The yield enhancing-benefit of DSCA was tested by growing non-transgenic and transgenic plants and applying dicamba to transgenic plants and harvesting the seeds. Non-transgenic and transgenic soybean seeds were planted near the beginning of the growing season in several locations at the time of best possible growth conditions such as soil moisture, temperature, and seeding depth. […] In all, 240 plots were planted at 6 locations (40 per location).
Four non-transgenic border rows were planted all around the trial using a known commercial line such as A3525. Optimum production and management practices known in the art were followed. Maximum pest control and disease control was practiced as needed to prevent confounding effects of dicamba applications. The field was irrigated as needed according to standard practices.

Where [9] appears, read: individual cotton plants 1-8, DCSA 24 hrs before inoculation, 45 days after inoculation.
The mark [10] stands for this setting: Verticillium isolate DPL (moderate).
The mark [11] stands for this setting: Verticillium isolate King (virulent).

Each structure is given as a SMILES string. “And” between values parts separate entries of the source, which are not always exact repeats. Equal entries are not always repeated. Where two headings read alike, the source gives them in different places.

Turning to `O=C(O)c1c(Cl)ccc(Cl)c1O` [DCSA, 3,6-dichloro salicylic acid], the “RKN Gall Rating (0-5)” value in test [1] (individual cotton plants 1-8, 45 days after inoculation, 0=no visible galling, 5=heavy galling) was 0 (4×) and 2 and 1 (3×). For the same molecule, in test [1] (setting [9]), the “Egg Count/pot” value is 5,200 and 1,800 and 2,200. Moreover, the “Plant Height” value in test [1] (setting [9]) is 25.4 cm (3×) and 22.2 cm and 17.8 cm and 14.0 cm and 15.9 cm and 12.7 cm. Moreover, the “Plant Height, Mean” value in test [1] (mean of 8 cotton plants, 45 days after inoculation) is 19.8 cm. In addition, in test [1] (mean of 8 cotton plants, 45 days after inoculation, 0=no visible galling, 5=heavy galling), the “RKN Gall Rating (0-5), Mean” value came out at 0.6. For the same molecule, in test [2] (four varieties of RR cotton pretreated with DCSA (24 hours), two nodes stage and 5 nodes stage), the Gramoxone injury entry was “reduced significantly”. Besides, the “induction of PR2 at various rates” value in test [3] is “induction of PR2”. In test [4], the bacterial blight symptoms result was “only localized lesions (HR response) and no increase in bacterial blight symptoms”. Moreover, the “% injury at 5 DAT” value was 50.83% in test [5] (event 469-13-19, 280 g/ha of Dicamba or DCSA followed by 100 g ae/ha of paraquat); 48.33% in test [5] (event 469-13-19, 561 g/ha of Dicamba or DCSA followed by 100 g ae/ha of paraquat); 43.33% in test [5] (event 469-13-19, 1120 g/ha of Dicamba or DCSA followed by 100 g ae/ha of paraquat); 66.67% and 53.33% and 49.17% in test [5] (in vivo). In addition, the “protection against oxidative stress caused by subsequently applied paraquat” value in test [5] (transgenic soybean, applied 24 hrs before Paraquat, reduction in injury increased with rate) is recorded as “provided protection against oxidative stress”. The “Plant survival rating (out of 10)” value in test [6] (setting [10]) and in test [6] (setting [11]) was 10 each time. For the same molecule, the “Severity rating (1-9)” value in test [6] (setting [10]) worked out at 1; in test [6] (setting [11]) it was 2. The “protection against Verticillium” value in test [6] (cotton, isolates DPL and King, DCSA 1 lb/A 24 hours before inoculation) was “provided protection against both moderate and strong isolates of Verticillium dahliae”. Moreover, the “survival of cotton plants after inoculation with Pythium ultimum” value in test [7] is “survive inoculation”.
On to `C[n+]1ccc(-c2cc[n+](C)cc2)cc1` [Paraquat], for which the Percentage injury came out at 35% in test [2] (cotton ST3273B2RF, Gramoxone 30 g a.i./ha); 50% in test [2] (cotton ST3273B2RF, Gramoxone 70 g a.i./ha); 50% in test [2] (cotton ST3273B2RF, Gramoxone 100 g a.i./ha); 65% in test [2] (cotton ST4575BR, Gramoxone 100 g a.i./ha); 70% in test [2] (cotton ST4646B2RF, Gramoxone 100 g a.i./ha); 50% in test [2] (cotton ST6622RF, Gramoxone 70 g a.i./ha). For the same molecule, in test [2] (cotton ST6622RF, Gramoxone 100 g a.i./ha), the Percentage injury is reported as 70%. Besides, in test [5] (N3001 (non-transgenic) soybean, paraquat 200 g ae/ha, V-3 stage, 4 DAT), the “% injury” value amounted to 75%. Also, the “% injury at 5 DAT Paraquat alone control” value stood at 75.83% in test [5] (transgenic event 462-1-21, paraquat 100 g ae/ha alone) and 77.50% in test [5] (transgenic event 469-13-19, paraquat 100 g ae/ha alone). The injury rate result in test [5] (transgenic soybean plants contacted with Paraquat alone) was “about 75%”.
As for `COc1c(Cl)ccc(Cl)c1C(=O)O` [Dicamba, 3,6-dichloro-2-methoxybenzoic acid], the “induction of PR2 at various rates” value in test [3] is given as “induction of PR2”. Moreover, the “induction of PR2 at various time points” value in test [3] (DMO soybean, dicamba (Clarity) 1 lb/acre at Post-V3, leaf samples 0-72 HAT, FIG. 1) is reported as “induction of PR2”. In addition, in test [5] (in vivo), the “% injury at 5 DAT” value was 65.00% and 54.17% and 45.83% and 51.67% and 40.83%; the Paraquat injury entry is given as “significantly reduced Paraquat injury”; the “protection against oxidative stress caused by subsequently applied paraquat” value is on record as “provided protection against oxidative stress”. Moreover, the “yield relative to unsprayed controls” value in test [8] is given as “an increase or equivalent yield to unsprayed controls”.
For the molecule `O=C(O)CNCP(=O)(O)O` [Glyphosate, N-phosphonomethylglycine, reference compound], in test [6] (setting [10]), the “Plant survival rating (out of 10)” value turned out to be 10 and the “Severity rating (1-9)” value was 2. In test [6] (setting [11]), the “Plant survival rating (out of 10)” value was found to be 10 and the “Severity rating (1-9)” value was 3.5.
